Experimental data: ChEMBL document CHEMBL1130110 (J Med Chem, 1997); call rule not given here

What was measured:
Glucagon receptor [1] = target: T1, Glucagon receptor (Rattus norvegicus, UniProt P30082); assay: Effective concentration was determined in cAMP accumulation assay using isolated hepatocytes in the presence rolipram.; format: functional, cell-based; conditions: hepatocyte
Glucagon receptor [2] = target: T1, Glucagon receptor; assay: Binding affinity towards Glucagon receptor in rat liver plasma membranes by displacement of 125 I-labelled glucagon; format: cell membranes
Glucagon receptor [3] = target: T1, Glucagon receptor; assay: pA2 value against Glucagon Receptor; conditions: read-out: pA2 (converted)

T1 sequence (P30082 whole entry): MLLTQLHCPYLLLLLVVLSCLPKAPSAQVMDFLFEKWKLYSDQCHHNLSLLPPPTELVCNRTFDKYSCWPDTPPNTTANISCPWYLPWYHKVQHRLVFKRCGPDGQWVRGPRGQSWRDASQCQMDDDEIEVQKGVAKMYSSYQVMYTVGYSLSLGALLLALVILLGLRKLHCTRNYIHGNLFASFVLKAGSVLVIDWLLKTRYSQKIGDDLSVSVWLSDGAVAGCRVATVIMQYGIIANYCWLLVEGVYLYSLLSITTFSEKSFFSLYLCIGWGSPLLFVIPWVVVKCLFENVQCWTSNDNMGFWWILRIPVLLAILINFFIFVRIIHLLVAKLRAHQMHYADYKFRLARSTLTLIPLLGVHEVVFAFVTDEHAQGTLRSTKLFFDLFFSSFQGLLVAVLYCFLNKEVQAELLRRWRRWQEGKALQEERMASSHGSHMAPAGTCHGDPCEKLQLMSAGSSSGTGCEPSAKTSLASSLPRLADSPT

SMILES | EC50 (Glucagon receptor [1]) | IC50 (Glucagon receptor [2]) | Kb (Glucagon receptor [3])
CSCC[C@H](NC(=O)[C@H](CC(C)C)NC(=O)[C@H](Cc1c[nH]c2ccccc12)NC(=O)[C@H](CCC(N)=O)NC(=O)[C@@H](NC(=O)[C@H](Cc1ccccc1)NC(=O)[C@H](CC(=O)O)NC(=O)[C@H](CCC(N)=O)NC(=O)[C@H](C)NC(=O)[C@H](CCCN=C(N)N)NC(=O)[C@H](CCCN=C(N)N)NC(=O)[C@H](CO)NC(=O)[C@H](CC(=O)O)NC(=O)[C@H](CC(C)C)NC(=O)[C@H](Cc1ccc(O)cc1)NC(=O)[C@H](CCCCN)NC(=O)[C@H](CO)NC(=O)[C@H](Cc1ccc(O)cc1)NC(=O)[C@H](CCC(=O)O)NC(=O)[C@H](CO)NC(=O)[C@@H](NC(=O)[C@H](CC(=O)O)NC(=O)[C@@H](NC(=O)CNC(=O)[C@H](CCC(N)=O)NC(=O)[C@@H](N)CO)[C@@H](C)O)[C@@H](C)O)C(C)C)C(=O)N[C@@H](CC(N)=O)C(=O)N[C@H](C(N)=O)[C@@H](C)O | Not Active | – | –
CSCC[C@H](NC(=O)[C@H](CC(C)C)NC(=O)[C@H](Cc1c[nH]c2ccccc12)NC(=O)[C@H](CCC(N)=O)NC(=O)[C@@H](NC(=O)[C@H](Cc1ccccc1)NC(=O)[C@H](CC(=O)O)NC(=O)[C@H](CCC(N)=O)NC(=O)[C@H](C)NC(=O)[C@H](CCCN=C(N)N)NC(=O)[C@H](CCCN=C(N)N)NC(=O)[C@H](CO)NC(=O)[C@H](CC(=O)O)NC(=O)[C@H](CC(C)C)NC(=O)[C@H](Cc1ccc(O)cc1)NC(=O)[C@H](CCCCN)NC(=O)[C@H](CO)NC(=O)[C@H](Cc1ccc(O)cc1)NC(=O)[C@H](CC(=O)O)NC(=O)[C@H](CO)NC(=O)[C@@H](NC(=O)[C@@H](NC(=O)CNC(=O)[C@H](CCC(N)=O)NC(=O)[C@@H](N)CO)[C@@H](C)O)[C@@H](C)O)C(C)C)C(=O)N[C@@H](CC(N)=O)C(=O)N[C@H](C(=O)O)[C@@H](C)O | Not Active | – | –
CSCC[C@H](NC(=O)[C@H](CC(C)C)NC(=O)[C@H](Cc1c[nH]c2ccccc12)NC(=O)[C@H](CCC(N)=O)NC(=O)[C@@H](NC(=O)[C@H](Cc1ccccc1)NC(=O)[C@H](CC(=O)O)NC(=O)[C@H](CCC(N)=O)NC(=O)[C@H](C)NC(=O)[C@H](CCCN=C(N)N)NC(=O)[C@H](CCCN=C(N)N)NC(=O)[C@H](CO)NC(=O)[C@H](CC(=O)O)NC(=O)[C@H](CC(C)C)NC(=O)[C@H](Cc1ccc(O)cc1)NC(=O)[C@H](CCCCN)NC(=O)[C@H](CO)NC(=O)[C@H](Cc1ccc(O)cc1)NC(=O)[C@H](CCC(=O)O)NC(=O)[C@H](CO)NC(=O)[C@@H](NC(=O)[C@H](C)NC(=O)[C@@H](NC(=O)CNC(=O)[C@H](CCC(N)=O)NC(=O)[C@@H](N)CO)[C@@H](C)O)[C@@H](C)O)C(C)C)C(=O)N[C@@H](CC(N)=O)C(=O)N[C@H](C(N)=O)[C@@H](C)O | Not Active | – | –
CSCC[C@H](NC(=O)[C@H](CC(C)C)NC(=O)[C@H](Cc1c[nH]c2ccccc12)NC(=O)[C@H](CCC(N)=O)NC(=O)[C@@H](NC(=O)[C@H](Cc1ccccc1)NC(=O)[C@H](CC(=O)O)NC(=O)[C@H](CCC(N)=O)NC(=O)[C@H](C)NC(=O)[C@H](CCCN=C(N)N)NC(=O)[C@H](CCCN=C(N)N)NC(=O)[C@H](CO)NC(=O)[C@H](CC(=O)O)NC(=O)[C@H](CC(C)C)NC(=O)[C@H](Cc1ccc(O)cc1)NC(=O)[C@H](CCCCN)NC(=O)[C@H](CO)NC(=O)[C@H](Cc1ccc(O)cc1)NC(=O)[C@H](CCC(=O)O)NC(=O)[C@H](CO)NC(=O)[C@@H](NC(=O)[C@@H](NC(=O)CNC(=O)[C@H](CCC(N)=O)NC(=O)[C@@H](N)CO)[C@@H](C)O)[C@@H](C)O)C(C)C)C(=O)N[C@@H](CC(N)=O)C(=O)N[C@H](C(N)=O)[C@@H](C)O | Not Active | – | –
CSCC[C@H](NC(=O)[C@H](CC(C)C)NC(=O)[C@H](Cc1c[nH]c2ccccc12)NC(=O)[C@H](CCC(N)=O)NC(=O)[C@@H](NC(=O)[C@H](Cc1ccccc1)NC(=O)[C@H](CC(=O)O)NC(=O)[C@H](CCC(N)=O)NC(=O)[C@H](C)NC(=O)[C@H](CCCN=C(N)N)NC(=O)[C@H](CCCN=C(N)N)NC(=O)[C@H](CO)NC(=O)[C@H](CC(=O)O)NC(=O)[C@H](CC(C)C)NC(=O)[C@H](Cc1ccc(O)cc1)NC(=O)[C@H](CCCCN)NC(=O)[C@H](CO)NC(=O)[C@H](Cc1ccc(O)cc1)NC(=O)[C@H](CCC(=O)O)NC(=O)[C@H](CO)NC(=O)[C@@H](NC(=O)[C@H](Cc1c[nH]c2ccccc12)NC(=O)[C@@H](NC(=O)CNC(=O)[C@H](CCC(N)=O)NC(=O)[C@@H](N)CO)[C@@H](C)O)[C@@H](C)O)C(C)C)C(=O)N[C@@H](CC(N)=O)C(=O)N[C@H](C(N)=O)[C@@H](C)O | Not Active | 19 nM | 562 nM
CC(C)C[C@H](NC(=O)[C@H](Cc1ccc(O)cc1)NC(=O)[C@H](CCCCN)NC(=O)[C@H](CO)NC(=O)[C@H](Cc1ccc(O)cc1)NC(=O)[C@H](CC(=O)O)NC(=O)[C@H](CO)NC(=O)[C@@H](NC(=O)[C@@H](NC(=O)CNC(=O)[C@H](CCC(N)=O)NC(=O)[C@H](CO)NC(=O)[C@@H](N)Cc1c[nH]cn1)[C@@H](C)O)[C@@H](C)O)C(=O)N[C@@H](CC(=O)O)C(=O)N[C@@H](CO)C(=O)N[C@@H](CCCN=C(N)N)C(=O)N[C@@H](CCCN=C(N)N)C(=O)N[C@@H](C)C(=O)N[C@@H](CCC(N)=O)C(=O)N[C@@H](CC(=O)O)C(=O)N[C@@H](Cc1ccccc1)C(=O)N[C@H](C(=O)N[C@@H](CCC(N)=O)C(=O)N[C@@H](Cc1c[nH]c2ccccc12)C(=O)N[C@@H](CC(C)C)C(=O)N[C@@H](CCS)C(=O)N[C@@H](CC(N)=O)C(=O)N[C@H](C=O)[C@@H](C)O)C(C)C | Not Active | – | –
CSCC[C@H](NC(=O)[C@H](CC(C)C)NC(=O)[C@H](Cc1c[nH]c2ccccc12)NC(=O)[C@H](CCC(N)=O)NC(=O)[C@@H](NC(=O)[C@H](Cc1ccccc1)NC(=O)[C@H](CC(=O)O)NC(=O)[C@H](CCC(N)=O)NC(=O)[C@H](C)NC(=O)[C@H](CCCN=C(N)N)NC(=O)[C@H](CCCN=C(N)N)NC(=O)[C@H](CO)NC(=O)[C@H](CC(=O)O)NC(=O)[C@H](CC(C)C)NC(=O)[C@H](Cc1ccc(O)cc1)NC(=O)[C@H](CCCCN)NC(=O)[C@H](CO)NC(=O)[C@H](Cc1ccc(O)cc1)NC(=O)[C@H](CCC(=O)O)NC(=O)[C@H](CO)NC(=O)[C@@H](NC(=O)[C@@H](NC(=O)CNC(=O)[C@H](CCC(N)=O)NC(=O)[C@H](CO)NC(=O)[C@@H](N)Cc1c[nH]cn1)[C@@H](C)O)[C@@H](C)O)C(C)C)C(=O)N[C@@H](CC(N)=O)C(=O)N[C@H](C(N)=O)[C@@H](C)O | Not Active | 113 nM | 631 nM
CSCC[C@H](NC(=O)[C@H](CC(C)C)NC(=O)[C@H](Cc1c[nH]c2ccccc12)NC(=O)[C@H](CCC(N)=O)NC(=O)[C@@H](NC(=O)[C@H](Cc1ccccc1)NC(=O)[C@H](CC(=O)O)NC(=O)[C@H](CCC(N)=O)NC(=O)[C@H](C)NC(=O)[C@H](CCCN=C(N)N)NC(=O)[C@H](CCCN=C(N)N)NC(=O)[C@H](CO)NC(=O)[C@H](CC(=O)O)NC(=O)[C@H](CC(C)C)NC(=O)[C@H](Cc1ccc(O)cc1)NC(=O)[C@H](CCCCN)NC(=O)[C@H](CO)NC(=O)[C@H](Cc1ccc(O)cc1)NC(=O)[C@H](CC(=O)O)NC(=O)[C@H](CO)NC(=O)[C@@H](NC(=O)[C@@H](NC(=O)CNC(=O)[C@H](CCC(N)=O)NC(=O)[C@@H](N)CO)[C@@H](C)O)[C@@H](C)O)C(C)C)C(=O)N[C@@H](CC(N)=O)C(=O)N[C@H](C(N)=O)[C@@H](C)O | Not Active | 128 nM | 562 nM
CSCC[C@H](NC(=O)[C@H](CC(C)C)NC(=O)[C@H](Cc1c[nH]c2ccccc12)NC(=O)[C@H](CCC(N)=O)NC(=O)[C@@H](NC(=O)[C@H](Cc1ccccc1)NC(=O)[C@H](CC(=O)O)NC(=O)[C@H](CCC(N)=O)NC(=O)[C@H](C)NC(=O)[C@H](CCCN=C(N)N)NC(=O)[C@H](CCCN=C(N)N)NC(=O)[C@H](CO)NC(=O)[C@H](CC(=O)O)NC(=O)[C@H](CC(C)C)NC(=O)[C@H](Cc1ccc(O)cc1)NC(=O)[C@H](CCCCN)NC(=O)[C@H](CO)NC(=O)[C@H](Cc1ccc(O)cc1)NC(=O)[C@H](CC(=O)O)NC(=O)[C@H](CO)NC(=O)[C@@H](NC(=O)[C@@H](NC(=O)CNC(=O)[C@H](CCC(N)=O)NC(=O)[C@H](CO)NC(=O)[C@@H](N)Cc1c[nH]cn1)[C@@H](C)O)[C@@H](C)O)C(C)C)C(=O)N[C@@H](CC(N)=O)C(=O)N[C@H](C(N)=O)[C@@H](C)O | Not Active | 512 nM | 501 nM
CSCC[C@H](NC(=O)[C@H](CC(C)C)NC(=O)[C@H](Cc1c[nH]c2ccccc12)NC(=O)[C@H](CCC(N)=O)NC(=O)[C@@H](NC(=O)[C@H](Cc1ccccc1)NC(=O)[C@H](CC(=O)O)NC(=O)[C@H](CCC(N)=O)NC(=O)[C@H](C)NC(=O)[C@H](CCCN=C(N)N)NC(=O)[C@H](CCCN=C(N)N)NC(=O)[C@H](CO)NC(=O)[C@H](CC(=O)O)NC(=O)[C@H](CC(C)C)NC(=O)[C@H](Cc1ccc(O)cc1)NC(=O)[C@H](CCCCN)NC(=O)[C@H](CO)NC(=O)[C@H](Cc1ccc(O)cc1)NC(=O)[C@H](CCC(=O)O)NC(=O)[C@H](CO)NC(=O)[C@@H](NC(=O)[C@H](Cc1ccc(O)cc1)NC(=O)[C@@H](NC(=O)CNC(=O)[C@H](CCC(N)=O)NC(=O)[C@@H](N)CO)[C@@H](C)O)[C@@H](C)O)C(C)C)C(=O)N[C@@H](CC(N)=O)C(=O)N[C@H](C(N)=O)[C@@H](C)O | Not Active | 40 nM | 631 nM
CSCC[C@H](NC(=O)[C@H](CC(C)C)NC(=O)[C@H](Cc1c[nH]c2ccccc12)NC(=O)[C@H](CCC(N)=O)NC(=O)[C@@H](NC(=O)[C@H](Cc1ccccc1)NC(=O)[C@H](CC(=O)O)NC(=O)[C@H](CCC(N)=O)NC(=O)[C@H](C)NC(=O)[C@H](CCCN=C(N)N)NC(=O)[C@H](CCCN=C(N)N)NC(=O)[C@H](CO)NC(=O)[C@H](CC(=O)O)NC(=O)[C@H](CC(C)C)NC(=O)[C@H](Cc1ccc(O)cc1)NC(=O)[C@H](CCCCN)NC(=O)[C@H](CO)NC(=O)[C@H](Cc1ccc(O)cc1)NC(=O)[C@H](CCC(=O)O)NC(=O)[C@H](CO)NC(=O)[C@@H](NC(=O)[C@@H](NC(=O)CNC(=O)[C@H](CCC(N)=O)NC(=O)[C@@H](N)CO)[C@@H](C)O)[C@@H](C)O)C(C)C)C(=O)N[C@@H](CC(N)=O)C(=O)N[C@H](C(=O)O)[C@@H](C)O (stereo in doubt; 13) | Not Active | – | –
